# Source: patent US5672603A, “Apoptosis regulating composition” (Otsuka Pharmaceutical Co., Ltd., priority 1991, dated 1997)
# Values joined by “and” are separate entries in the source; they are usually repeats but may differ in a detail not shown here. Equal values may be shown once.
# Key:
# W/BF1 :(NZW×BXSB)F1 mice = experiment: Blood cell analysis in autoimmune disease mice; format: in vivo
# Experimental: (§1) W/BF1 :(NZW×BXSB)F1 mice were used at the age of 14 weeks (purchased from Kiwa Experimental Animal). Groups of 10 mice were used in each experiment.
# The mice in respective groups were given a diet (Oriental Yeast), which is usually given to this kind of mice, and water.
# (§2) Compound 1 (Lot No. 9D87M) was used as suspended in a 0.5% solution of carborymethylcellulose (CMC, Cellogan). Compound 1 was administered to mice by oral garage in doses of 100 and 300 mg/kg body weight/day for 6 weeks from 14 weeks of age to 20 weeks of age according to the 5-day administration and 2-day cessation schedule. As a control, an untreated group was provided. […] Statistic analysis was performed by the generalized Wilcoxon test with respect to the untreated group.
# (2) For blood cell analysis, the blood was sampled from the fundus oculi at the age of 14, 16, 18 and 20 weeks. Changes in blood cell (white blood cell, red blood cell and platelet) counts were determined using an automatic blood cell analyzer (Coulter JR, Coulter). The differential (neutrophil and 11 lymphocyte) counts were determined using blood smears stained with Wright-Giemsa stain. For statistical analysis, Student's t test was used, taking the untreated group as control, on each blood sampling day.
# [1] = system: human peripheral blood acute lymphocytic leukemia cells (Molt-4); experiment: ATL-infected cell growth inhibition test: ATLV-noninfected cells; format: cell-based; conditions: for Number of ATLV-noninfected cells: 4 days, control 13.9
# Experimental: Human peripheral blood acute lymphocytic leukemia cells (Molt-4) [J. Minowada, et al., J. Natl. Cancer Inst., 49, 891-895 (1972): ATCC CRL1582] were used to prepare a suspension of 1×10^5 cells/ml in RPMI-1640 medium (Gibco) supplemented 10% fetal calf serum (FCS, Gibco) for use as ATL virus-noninfected cells.
# Compound 1 was dissolved in hydrochloric acid, diluted with the same medium as above, neutralized with 2N NaOH and adjusted to concentrations of 1 μg/ml, 10 μg/ml and 30 μg/ml.
# The cells prepared in (a) and (b) above were respectively placed in wells of a 24-well culture plate (Nunc), followed by addition of the test compound prepared in (c) (final concentration: 1 μg/ml, 10 μg/ml or 30 μg/ml), and cultured at 37° C. in a 5% carbon dioxide incubator for 4 days. As a control, the medium without addition of the test compound was used. After completion of incubation, the cell suspension in each well was taken for determination of viable cells.
# anti-platelet antibodies = experiment: Assay of anti-platelet antibodies in autoimmune disease mice; format: in vivo, W/BF1 mice; conditions: for Anti-platelet antibodies, % positive, Mean ± SE / Anti-platelet antibodies, % positive, individual mice: 20 weeks of age; for Anti-platelet antibodies, % positive, Mean ± SE: untreated 19.6 ± 5.5
# Experimental: as §1, §2
# (3) Oyaizu et al. have reported that in W/BF1 mice, thrombocytopenia is associated with the appearance of anti-platelet antibodies.
# The platelets collected from Balb/c mice and the plasma collected from W/BF1 mice treated up to the age of 20 weeks were incubated together at room temperature for 30 minutes. The mixture was washed twice and allowed to react with FITC-labeled anti-mouse IgG (Tago, Code No. 6250), and after staining, anti-platelet antibodies were assayed with an FACS analyzer (EPICS-Profile II, Coulter). The negative control was set so that the plasma from Balb/c mice was 98% negative. The positive rate of each sample was determined.
# HL-60 cells = experiment: Differentiation inducing test: reactivity of HL-60 cells with monoclonal antibody FH-6 (sialyl Le^X); format: cell-based, human; conditions: 2 hours; for Positive rate (%), FH-6: control 95
# Experimental: The monoclonal antibody FH-6 capable of recognizing sialyl Le^X was fluoresein (FITC)-labeled, and the reactivity between the active ingredient compound of the present invention and FH-6 was examined by flow cytometry as follows.
# The test compound solutions prepared as described above under (3) were added to HL-60 cells prepared as described above under (1) to a final concentration of 1.0 μg/ml or 10 μg/ml. Cultivation was conducted in a 5% carbon dioxide gas incubator at 37° C. for 2 hours. Thereafter, the cell concentration was adjusted to 1 x 10^6 cells/ml and 100 μl of each aliquot was reacted with 10 μl of the fluorescein-labeled FH-6 solution, followed by flow cytometry.
smiles,measurement,setting,value
"COc1ccc(C(=O)N2CCN(c3ccc4c(c3)CCC(=O)N4)CC2)cc1OC [Compound 1, 6-[4-(3,4-Dimethoxybenzoyl)-1-piperazinyl]-3,4-dihydrocarbostyril]",Lymphocytes,"W/BF1 :(NZW×BXSB)F1 mice; 100 mg/kg, 14 weeks of age",6.55 ± 1.11 ×10^3 /mm^3
same,Neutrophils,"W/BF1 :(NZW×BXSB)F1 mice; 100 mg/kg, 14 weeks of age",0.97 ± 0.21 ×10^3 /mm^3
same,Platelets,"W/BF1 :(NZW×BXSB)F1 mice; 100 mg/kg, 14 weeks of age",1225.2 ± 187.6 ×10^3 /mm^3
same,Red blood cells,"W/BF1 :(NZW×BXSB)F1 mice; 100 mg/kg, 14 weeks of age",9.08 ± 0.19 ×10^6 /mm^3
same,White blood cells,"W/BF1 :(NZW×BXSB)F1 mice; 100 mg/kg, 14 weeks of age",7.53 ± 1.26 ×10^3 /mm^3
same,Lymphocytes,"W/BF1 :(NZW×BXSB)F1 mice; 100 mg/kg, 16 weeks of age",9.83 ± 2.72 ×10^3 /mm^3
same,Neutrophils,"W/BF1 :(NZW×BXSB)F1 mice; 100 mg/kg, 16 weeks of age",3.01 ± 2.14 ×10^3 /mm^3
same,Platelets,"W/BF1 :(NZW×BXSB)F1 mice; 100 mg/kg, 16 weeks of age",749.6 ± 116.6 ×10^3 /mm^3
same,White blood cells,"W/BF1 :(NZW×BXSB)F1 mice; 100 mg/kg, 16 weeks of age",12.91 ± 4.76 ×10^3 /mm^3
same,Red blood cells,"W/BF1 :(NZW×BXSB)F1 mice; 100 mg/kg, 16 weeks of age, *P < 0.05",9.06 ± 0.19 ×10^6 /mm^3
same,Lymphocytes,"W/BF1 :(NZW×BXSB)F1 mice; 100 mg/kg, 18 weeks of age",10.68 ± 3.78 ×10^3 /mm^3
same,Neutrophils,"W/BF1 :(NZW×BXSB)F1 mice; 100 mg/kg, 18 weeks of age",5.82 ± 1.65 ×10^3 /mm^3
same,Platelets,"W/BF1 :(NZW×BXSB)F1 mice; 100 mg/kg, 18 weeks of age",524.0 ± 105.6 ×10^3 /mm^3
same,Red blood cells,"W/BF1 :(NZW×BXSB)F1 mice; 100 mg/kg, 18 weeks of age",8.46 ± 0.34 ×10^6 /mm^3
same,White blood cells,"W/BF1 :(NZW×BXSB)F1 mice; 100 mg/kg, 18 weeks of age",16.49 ± 4.98 ×10^3 /mm^3
same,Lymphocytes,"W/BF1 :(NZW×BXSB)F1 mice; 100 mg/kg, 20 weeks of age",8.70 ± 1.02 ×10^3 /mm^3
same,Neutrophils,"W/BF1 :(NZW×BXSB)F1 mice; 100 mg/kg, 20 weeks of age",3.25 ± 1.06 ×10^3 /mm^3
same,Platelets,"W/BF1 :(NZW×BXSB)F1 mice; 100 mg/kg, 20 weeks of age",341.1 ± 111.9 ×10^3 /mm^3
same,White blood cells,"W/BF1 :(NZW×BXSB)F1 mice; 100 mg/kg, 20 weeks of age",11.72 ± 1.71 ×10^3 /mm^3
same,Red blood cells,"W/BF1 :(NZW×BXSB)F1 mice; 100 mg/kg, 20 weeks of age, *P < 0.05",8.29 ± 0.37 ×10^6 /mm^3
same,Inhibition of decrease in platelet count (in words),"W/BF1 :(NZW×BXSB)F1 mice; 300 mg/kg/day, 20 weeks of age, vs untreated",significant inhibition
same,Lymphocytes,"W/BF1 :(NZW×BXSB)F1 mice; 300 mg/kg, 14 weeks of age",4.50 ± 0.63 ×10^3 /mm^3
same,Neutrophils,"W/BF1 :(NZW×BXSB)F1 mice; 300 mg/kg, 14 weeks of age",0.79 ± 0.19 ×10^3 /mm^3
same,Platelets,"W/BF1 :(NZW×BXSB)F1 mice; 300 mg/kg, 14 weeks of age",1316.8 ± 86.3 ×10^3 /mm^3
same,Red blood cells,"W/BF1 :(NZW×BXSB)F1 mice; 300 mg/kg, 14 weeks of age",9.17 ± 0.21 ×10^6 /mm^3
same,White blood cells,"W/BF1 :(NZW×BXSB)F1 mice; 300 mg/kg, 14 weeks of age",5.46 ± 0.74 ×10^3 /mm^3
same,Lymphocytes,"W/BF1 :(NZW×BXSB)F1 mice; 300 mg/kg, 16 weeks of age",7.01 ± 0.92 ×10^3 /mm^3
same,Neutrophils,"W/BF1 :(NZW×BXSB)F1 mice; 300 mg/kg, 16 weeks of age",1.86 ± 0.40 ×10^3 /mm^3
same,Platelets,"W/BF1 :(NZW×BXSB)F1 mice; 300 mg/kg, 16 weeks of age",1055.8 ± 72.0 ×10^3 /mm^3
same,Red blood cells,"W/BF1 :(NZW×BXSB)F1 mice; 300 mg/kg, 16 weeks of age",8.43 ± 0.30 ×10^6 /mm^3
same,White blood cells,"W/BF1 :(NZW×BXSB)F1 mice; 300 mg/kg, 16 weeks of age",9.36 ± 1.77 ×10^3 /mm^3
same,Lymphocytes,"W/BF1 :(NZW×BXSB)F1 mice; 300 mg/kg, 18 weeks of age",6.16 ± 0.88 ×10^3 /mm^3
same,Neutrophils,"W/BF1 :(NZW×BXSB)F1 mice; 300 mg/kg, 18 weeks of age",5.65 ± 2.77 ×10^3 /mm^3
same,Platelets,"W/BF1 :(NZW×BXSB)F1 mice; 300 mg/kg, 18 weeks of age",980.0 ± 114.4 ×10^3 /mm^3
same,Red blood cells,"W/BF1 :(NZW×BXSB)F1 mice; 300 mg/kg, 18 weeks of age",8.83 ± 0.32 ×10^6 /mm^3
same,White blood cells,"W/BF1 :(NZW×BXSB)F1 mice; 300 mg/kg, 18 weeks of age",11.90 ± 3.52 ×10^3 /mm^3
same,Lymphocytes,"W/BF1 :(NZW×BXSB)F1 mice; 300 mg/kg, 20 weeks of age",10.73 ± 5.81 ×10^3 /mm^3
same,Neutrophils,"W/BF1 :(NZW×BXSB)F1 mice; 300 mg/kg, 20 weeks of age",2.24 ± 0.23 ×10^3 /mm^3
same,Red blood cells,"W/BF1 :(NZW×BXSB)F1 mice; 300 mg/kg, 20 weeks of age",7.90 ± 0.30 ×10^6 /mm^3
same,White blood cells,"W/BF1 :(NZW×BXSB)F1 mice; 300 mg/kg, 20 weeks of age",12.97 ± 5.95 ×10^3 /mm^3
same,Platelets,"W/BF1 :(NZW×BXSB)F1 mice; 300 mg/kg, 20 weeks of age, **P < 0.01",823.3 ± 24.5 ×10^3 /mm^3
same,Red blood cell count (in words),W/BF1 :(NZW×BXSB)F1 mice; compared with the platelet count result,A similar result was found for red blood cell count
same,Effect on white blood cell count (in words),"W/BF1 :(NZW×BXSB)F1 mice; mouse, in vivo",no effect on this parameter
same,Number of ATLV-noninfected cells,[1]; 1 μg/ml,13.9 ×10^5
same,Number of ATLV-noninfected cells,[1]; 10 μg/ml,12.2 ×10^5
same,Number of ATLV-noninfected cells,[1]; 30 μg/ml,12.8 ×10^5
same,Effect on ATLV-noninfected cells (in words),[1]; 1-30 μg/ml,does not affect ATLV-noninfected cells
same,"Anti-platelet antibodies, % positive, Mean ± SE",anti-platelet antibodies; 100 mg/kg/day,13.3 ± 2.7% and 13.2±2.7%
same,"Anti-platelet antibodies, % positive, individual mice","anti-platelet antibodies; 100 mg/kg, mouse Nos. 1-10",3.7% and 13.5% and 3.1% and 17.3% and 21.5% and 16.8% and 18.2% and 7.8% and 8.5% and 27.1%
same,"Anti-platelet antibodies, % positive, Mean ± SE",anti-platelet antibodies; 300 mg/kg/day,10.7 ± 2.2%
same,"Anti-platelet antibodies, % positive, individual mice","anti-platelet antibodies; 300 mg/kg, mouse Nos. 1-4, 6-9",2.3% and 11.4% and 14.1% and 6.0% and 16.4% and 12.1% and 4.1% and 19.5%
same,Inhibition of anti-platelet antibodies (in words),anti-platelet antibodies; 100 and 300 mg/kg/day,dose-dependent inhibition of anti-platelet antibodies
same,Sialic acid on HL-60 cell surface,HL-60 cells; 1.0 or 10 μg/ml,loss of sialic acid from the HL-60 cell surface
same,"Positive rate (%), FH-6",HL-60 cells; 1.0 μg/ml,82%
same,"Positive rate (%), FH-6",HL-60 cells; 10 μg/ml,76%
